Source: patent US20090326001A1, “THIENOPYRIDINE DERIVATIVES AS MODULATORS OF METABOTROPIC GLUTAMATE RECEPTORS” (priority 2005, published 2009)
pKi: −log10 of the molar value.

Experiments:
rat mGluR1 = biological target: T1, rat mGluR1 (Rattus norvegicus, UniProt P23385); assay: mGluR1 receptor binding test ([3H]R214127 displacement, rat cerebellar membrane); details: radioligand [3H]R214127 3 nM, read-out: mGlu1 Ki
T1 construct: rat cerebellar membrane preparation was used; from tissue; host or cells: rat cerebellum (membrane preparation)
T1 sequence (P23385 19-1199): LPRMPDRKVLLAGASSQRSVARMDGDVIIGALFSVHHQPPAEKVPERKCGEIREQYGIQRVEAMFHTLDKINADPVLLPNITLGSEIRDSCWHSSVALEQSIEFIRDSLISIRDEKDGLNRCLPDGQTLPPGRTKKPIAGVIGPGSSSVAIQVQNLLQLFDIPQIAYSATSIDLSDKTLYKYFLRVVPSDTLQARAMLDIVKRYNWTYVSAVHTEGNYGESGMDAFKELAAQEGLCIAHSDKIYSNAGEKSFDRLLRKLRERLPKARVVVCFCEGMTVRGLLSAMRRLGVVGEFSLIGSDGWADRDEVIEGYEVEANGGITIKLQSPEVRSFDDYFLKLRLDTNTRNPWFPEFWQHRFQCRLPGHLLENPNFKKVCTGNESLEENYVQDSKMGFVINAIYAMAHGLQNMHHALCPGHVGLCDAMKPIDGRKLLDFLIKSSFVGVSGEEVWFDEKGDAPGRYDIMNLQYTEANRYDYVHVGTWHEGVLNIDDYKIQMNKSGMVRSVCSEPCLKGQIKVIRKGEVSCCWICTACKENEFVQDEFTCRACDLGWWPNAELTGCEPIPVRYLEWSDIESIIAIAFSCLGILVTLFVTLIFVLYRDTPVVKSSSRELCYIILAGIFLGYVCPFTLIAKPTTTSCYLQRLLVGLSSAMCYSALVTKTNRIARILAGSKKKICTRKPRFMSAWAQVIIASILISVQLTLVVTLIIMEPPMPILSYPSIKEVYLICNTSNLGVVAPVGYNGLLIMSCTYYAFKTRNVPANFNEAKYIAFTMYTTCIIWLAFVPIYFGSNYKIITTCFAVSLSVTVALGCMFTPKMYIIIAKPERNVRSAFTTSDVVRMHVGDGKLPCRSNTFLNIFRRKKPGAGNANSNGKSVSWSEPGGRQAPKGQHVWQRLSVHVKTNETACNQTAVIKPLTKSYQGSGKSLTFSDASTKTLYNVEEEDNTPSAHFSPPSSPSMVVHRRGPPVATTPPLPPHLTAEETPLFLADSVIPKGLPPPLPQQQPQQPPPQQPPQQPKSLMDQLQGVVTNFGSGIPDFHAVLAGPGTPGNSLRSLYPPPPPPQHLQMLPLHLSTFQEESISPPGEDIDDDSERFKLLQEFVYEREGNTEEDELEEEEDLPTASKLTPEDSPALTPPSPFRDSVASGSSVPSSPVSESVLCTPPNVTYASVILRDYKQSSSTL
Description: MGluR1 receptor binding testes were performed according to modified method of Lavreysen et al. (Mol. Pharm., 2003, 63, 1082). Based on the high homology between the human and rat mGluR1 receptors, rat cerebellar membrane preparation was used to determine the binding characteristics of reference compounds and novel compounds to the rat mGluR1. As radioligand [3H]R214127 (3 nM) was used and the nonspecific binding was determined in the presence of 1 μM of R214127.
IC-50 values were determined from displacement curves by nonlinear regression analysis and were converted by equation method of Cheng and Prusoff (Biochem. Pharmacol., 1973, 22, 3099) to Ki values.

mGluR5 = biological target: T2, mGluR5 (UniProt P31424); assay: mGluR5 receptor binding test ([3H]-M-MPEP displacement); details: radioligand [3H]-M-MPEP 2 nM; table does not say rat cerebro-cortical membrane or human mGluR5a A18 cells; read-out: mGlu5 Ki
T2 construct: Rat cerebro-cortical membrane preparation
Description: Rat cerebro-cortical membrane preparation was used to determine the binding characteristics of reference compounds and novel compounds to the rat mGluR5. The A18 cell line expressing hmGluR5a (purchased from Euroscreen) was used to determine binding characteristics of the chemical compounds to the human mGluR5a receptor. As radioligand [3H]-M-MPEP (2 nM) was used. The nonspecific binding was determined in the presence of 10 μM M-MPEP.

| pKi (rat mGluR1) | pKi (mGluR5) | Molecule |
| --- | --- | --- |
| < 5.82 | < 5.82 | O=C(Nc1ccc(F)cc1)c1sc2ncccc2c1-c1ccc(F)cc1 [Compound 37] |
| > 6.30 | > 6.30 | O=C(Cc1ccc(F)cc1)c1sc2ncccc2c1-c1ccc(Cl)cc1 [Compound 1, 1-[3-(4-chloro-phenyl)-thieno[2,3-b]pyridin-2-yl]-2-(4-fluoro-phenyl)-ethanone] |
| 5.82 to 6.30 | < 5.82 | CN(Cc1ccc(F)cc1)C(=O)c1sc2ncccc2c1-c1ccc(Cl)cc1 [Compound 34] |
| > 6.30 | > 6.30 | CCOC(=O)CC(=O)c1sc2nc(C)ccc2c1-c1ccc(Cl)cc1 [Compound 26, 3-[3-(4-chloro-phenyl)-6-methyl-thieno[2,3-b]pyridin-2-yl]-3-oxo-propionic acid ethyl ester] |
| > 6.30 | > 6.30 | O=C(OCc1ccc(F)cc1)c1sc2ncccc2c1-c1ccc(Cl)cc1 [Compound 20, 3-(4-chloro-phenyl)-thieno[2,3-b]pyridine-2-carboxylic acid 4-fluoro-benzyl ester] |
| > 6.30 | > 6.30 | O=C(CCc1ccc(F)cc1)c1sc2ncccc2c1-c1ccc(F)cc1 [Compound 5, 3-(4-Fluoro-phenyl)-1-[3-(4-fluoro-phenyl)-thieno[2,3-b]pyridin-2-yl]-propan-1-one] |
| > 6.30 | 5.82 to 6.30 | O=C(CCc1ccccn1)c1sc2ncccc2c1-c1ccc(F)cc1 [Compound 17] |
| > 6.30 | > 6.30 | CCOC(=O)CC(=O)c1sc2ncccc2c1-c1ccc(C)cc1 [Compound 22, 3-oxo-3-(3-p-tolyl-thieno[2,3-b]pyridin-2-yl)-propionic acid ethyl ester] |
| > 6.30 | > 6.30 | CCOC(=O)CC(=O)c1sc2ncccc2c1-c1ccc(Cl)cc1 [Compound 23, 3-[3-(4-Chloro-phenyl)-thieno[2,3-b]pyridin-2-yl]-3-oxo-propionic acid ethyl ester] |
| > 6.30 | 5.82 to 6.30 | O=C(CCc1cccs1)c1sc2ncccc2c1-c1ccc(F)cc1 [Compound 18] |
| > 6.30 | > 6.30 | O=C(Cc1ccc(F)cc1)c1sc2ncccc2c1-c1ccc(F)cc1 [Compound 3, 2-(4-fluoro-phenyl)-1-[3-(4-fluoro-phenyl)-thieno[2,3-b]pyridin-2-yl]-ethanone] |
| < 5.82 | < 5.82 | CN(Cc1cccs1)C(=O)c1sc2ncccc2c1-c1ccc(Cl)cc1 [Compound 30] |
| > 6.30 | > 6.30 | CCOC(=O)CC(=O)c1sc2ncccc2c1-c1ccccc1 [Compound 25, 3-oxo-3-(3-phenyl-thieno[2,3-b]pyridin-2-yl)-propionic acid ethyl ester] |
| > 6.30 | > 6.30 | O=C(Cc1ccc(F)c(F)c1)c1sc2ncccc2c1-c1ccc(Cl)cc1 [Compound 2, 1-[3-(4-chloro-phenyl)-thieno[2,3-b]pyridin-2-yl]-2-(3,4-difluoro-phenyl)-ethanone] |
| < 5.82 | < 5.82 | O=C(Nc1nccs1)c1sc2ncccc2c1-c1ccc(Cl)cc1 [Compound 35] |
| > 6.30 | > 6.30 | O=C(NCc1ccc(F)cc1)c1sc2ncccc2c1-c1ccc(F)cc1 [Compound 27, 3-(4-Fluoro-phenyl)-thieno[2,3-b]pyridin-2-carboxylic acid (4-fluoro-benzyl)-amide] |
| 5.82 to 6.30 | 5.82 to 6.30 | O=C(CCc1ccoc1)c1sc2ncccc2c1-c1ccc(F)cc1 [Compound 16] |
| > 6.30 | > 6.30 | O=C(CCc1cccc(F)c1)c1sc2ncccc2c1-c1ccc(F)cc1 [Compound 4, 3-(3-fluoro-phenyl)-1-[3-(4-fluoro-phenyl)-thieno[2,3-b]pyridin-2-yl]-propan-1-one] |
| > 6.30 | > 6.30 | CCOC(=O)CC(=O)c1sc2ncccc2c1-c1ccc(F)cc1 [Compound 24, 3-[3-(4-fluoro-phenyl)-thieno[2,3-b]pyridin-2-yl]-3-oxo-propionic acid ethyl ester] |
| > 6.30 | > 6.30 | O=C(CCc1ccsc1)c1sc2ncccc2c1-c1ccc(F)cc1 [Compound 19, 1-[3-(4-fluoro-phenyl)-thieno[2,3-b]pyridin-2-yl]-3-thiophen-3-yl-propan-1-one] |

| Molecule | pKi (rat mGluR1) | pKi (mGluR5) |
| --- | --- | --- |
| 3-(4-Fluoro-phenyl)-1-[3-(4-fluoro-phenyl)-thieno[2,3-b]pyridin-2-yl]-propenone [Compound 10] | > 6.30 | < 5.82 |
